Eight compounds from PubChem BioAssay (NCI) can be followed below.

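In this assay, cells in 96-well plates receive the compound at five concentrations for 48 hours. Endpoints are linearly interpolated between the surrounding concentrations. At the TGI there is no net growth.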

Holding throughout (test): DTP human tumour cell line panel, 48 h
Assay [1] relates to MALME-3M melanoma.
Assay [2] has as its system UACC-257 melanoma.
In assay [3] the test system is NCI-H23 lung.
Assay [4] relates to IGROV1 ovarian.
The test system of assay [5] is HCC-2998 colon.
The subject of assay [6] is SF-268 CNS.
For assay [7], the system named is 786-0 renal.
The test system of assay [8] is UO-31 renal.
For assay [9], the system named is SW-620 colon.
Assay [10] deals with A549 NSCLC.
For assay [11], the system named is HOP-92 NSCLC.
In assay [12] the test system is HT29 colon.
The test system of assay [13] is CAKI-1 renal.
Assay [14] relates to UACC-62 melanoma.

Regarding `CCOC(=O)C1SC(=Nc2ccc(Cl)cc2Cl)N=C1C` (configuration not stated), the TGI in assay [1], in assay [2], in [3], in assay [4], in assay [5] and in [6] was > 100 µM in each case. Further, the TGI – broadly, the concentration at which net growth stops – in assay [7] was > 100 µM; in [8] it was > 100 µM; in assay [9], > 100 µM; in assay [10] it was > 100 µM; in [11], 62.3 µM; in assay [12], > 100 µM. Besides, the TGI in [13] and in assay [14] was > 100 µM each time.
On to `COc1ccc2c(c1)[n+]([O-])c(/C(C)=N/NC(=O)c1ccccc1O)c(C)[n+]2[O-]`, for which the TGI in assay [1], in assay [2], in assay [3], in assay [4], in [5] and in assay [6] was > 100 µM each time. Also, the TGI in assay [7], in assay [8], in [9], in assay [10], in [11] and in [12] was > 100 µM in each case. Besides, the TGI in [13] and in assay [14] was > 100 µM throughout.
For `COc1cc(CNc2cnc3ccc(N)cc3n2)cc(OC)c1OC`, the TGI in assay [1], in assay [2], in assay [3], in assay [4], in [5] and in [6] was > 100 µM each time. Moreover, the TGI in assay [7], in assay [8], in assay [9], in [10], in assay [11] and in assay [12] was > 100 µM each time. Also, the TGI in assay [13] and in [14] was > 100 µM in each case.
For the compound `NC(CCCCNCc1ccccc1)C(=O)O` (configuration not stated), the TGI in [1], in assay [2], in assay [3], in [4], in assay [5] and in assay [6] was > 100 µM throughout. The TGI in assay [7], in assay [8], in assay [9], in assay [10], in assay [11] and in [12] was > 100 µM in each case. In addition, the TGI in assay [13] and in [14] was > 100 µM in each case.
Consider `CN(C)C(=NC#N)N(Cc1ccccc1)Cc1ccccc1`, for which the TGI in assay [1], in assay [2], in assay [3], in assay [4], in assay [5] and in assay [6] was > 100 µM each time. The TGI in [7] was > 100 µM; in assay [8] it was > 100 µM; in [9] it was 33.7 µM; in [10], > 100 µM; in assay [11], > 100 µM; in assay [12], > 100 µM. Moreover, the TGI in assay [13] and in assay [14] was > 100 µM in each case.
Consider `C/C(=N/O)c1sc(-c2nc(C)c(/C(C)=N\O)s2)nc1C`, for which the TGI in [1], in [2], in assay [3], in [4], in [5] and in assay [6] was > 100 µM throughout. Moreover, the TGI in assay [7], in assay [8], in assay [9], in [10], in assay [11] and in [12] was > 100 µM in each case. Besides, the TGI in assay [13] and in assay [14] was > 100 µM each time.
With `Cc1nc2c3c(ccc2[nH]c1=O)C(=O)c1ccccc1C3=O`, the TGI in [1], in assay [2], in assay [3], in assay [4], in [5] and in [6] was > 100 µM throughout. Moreover, the TGI in assay [7], in [8], in assay [9], in [10], in assay [11] and in assay [12] was > 100 µM each time. The TGI in assay [13] and in [14] was > 100 µM throughout.
As to `CC(C)c1ccc(/C=C/c2cc(C(=O)NNC(=O)NC3CCCCC3)nc(=S)[nH]2)cc1`, the TGI in [1], in assay [2], in assay [3], in [4], in assay [5] and in assay [6] was > 100 µM in each case. Further, the TGI in [7], in [8], in assay [9], in [10], in [11] and in assay [12] was > 100 µM throughout. The TGI in assay [13] and in assay [14] was > 100 µM in each case.
